Laboratory results from US8247211B2, “Glycopeptide antibiotics” (American Cyanamid Company, priority 2001, dated 2012).
In brackets after ≈: the same amount, converted by molar mass.

What was measured:
Experiment in all cases: In vitro antibacterial evaluation: minimum inhibitory concentration (MIC), broth dilution method
Assay type in all cases: cell-based
[1] = tested on: Enterococcus sp.; conditions: 18 hours at 35° C.
Outline: (§1)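 Inoculum: 5×10^5 CFU/mL. Range: 64-0.06 μg/mL. Medium: Muller-Hinton II […]; NCCLS M7-A2 broth dilution. Endpoint: lowest concentration inhibiting growth. Strains include methicillin-, penicillin- and/or vancomycin-resistant clinical isolates.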

[2] = tested on: Escherichia coli; conditions: 18 hours at 35° C.
Outline: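 An MIC is reported for each organism as the least concentration giving inhibition, using broth dilution over 64-0.06 μg/mL with a 5×10^5 CFU/mL inoculum.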

[3] = tested on: Staphylococcus sp.; conditions: for MIC Staphylococcus aureus (ATCC 29213): strain ATCC 29213; for MIC Staphylococcus aureus (GC 1131): strain GC 1131; for MIC Staphylococcus aureus (GC 3051): strain GC 3051; for MIC Staphylococcus aureus (GC 3053): strain GC 3053; for MIC Staphylococcus aureus (GC 4541): strain GC 4541; for MIC Staphylococcus aureus (GC 4542): strain GC 4542; for MIC Staphylococcus aureus-SMITH (GC 4543): strain GC 4543; for MIC Staphylococcus aureus (GC 4544): strain GC 4544; for MIC Staphylococcus aureus (GC 4545): strain GC 4545; for MIC Staphylococcus haemolyticus (GC 4546): strain GC 4546; for MIC Coagulase Negative Staphylococcus (GC 4547): strain GC 4547; for MIC Coagulase Negative Staphylococcus (GC 4548): strain GC 4548; for MIC Coagulase Negative Staphylococcus (GC 4549): strain GC 4549; for MIC Coagulase Negative Staphylococcus (GC 4551): strain GC 4551; for MIC Coagulase Negative Staphylococcus (GC 6257): strain GC 6257
Outline: as §1

[4] = tested on: Streptococcus sp.; conditions: 18 hours at 35° C.
Outline: as §1

[5] = Enterococcus faecalis (ATCC 29212)
[6] = Enterococcus faecalis (GC 2242)
[7] = Enterococcus faecalis (GC 2691)
[8] = Enterococcus faecalis (GC 3059)
[9] = Enterococcus faecalis (GC 4552)
[10] = Enterococcus faecalis (GC 4553)
[11] = Enterococcus faecalis (GC 4554)
[12] = Enterococcus faecalis (GC 6189)
[13] = broth dilution, inoculum 5×10^5 CFU/mL
[14] = Streptococcus agalactiae (GC 4564)
[15] = Streptococcus pneumoniae (ATCC 6301)
[16] = Streptococcus pneumoniae (GC 1894)
[17] = Streptococcus pneumoniae (GC 4565)
[18] = Streptococcus pyogenes (GC 4563)

CC(c1ccccc1)C1NC(=O)CNC(=O)C(CO)NC(=O)C(C(O)C2CNC(=N)N2C2OC(CO)C(O)C(O)C2O)NC(=O)C(C(O)C2CNC(=N)N2)NC(=O)C(Cc2ccc(OC3OC(CO)C(OC4OC5COC(c6ccccc6)OC5C(O)C4O)C(O)C3O)c(I)c2)NC1=O (stereo not drawn) [Example 196, Cyclo[glycyl-β-methylphenylalanyl-O-[4-O-(4,6-O-benzylidenehexopyranosyl)hexopyranosyl]-3-iodotyrosyl-3-(2-iminoimidazolidin-4-yl)seryl-3-(3-hexopyranosyl-2-iminoimidazolidin-4-yl)-serylseryl]]
MIC Enterococcus avium (GC 4558) ([1]; Enterococcus avium (GC 4558)): 32 µg/mL (≈ 21.2 µM) | MIC Enterococcus faecalis (ATCC 29212) [1, 5]: >64 µg/mL | MIC Enterococcus faecalis (GC 2242) [1, 6]: >64 µg/mL | MIC Enterococcus faecalis (GC 2691) [1, 7]: >64 µg/mL | MIC Enterococcus faecalis (GC 3059) [1, 8]: >64 µg/mL | MIC Enterococcus faecalis (GC 4552) [1, 9]: >64 µg/mL | MIC Enterococcus faecalis (GC 4553) [1, 10]: 64 µg/mL (≈ 42.4 µM) | MIC Enterococcus faecalis (GC 4554) [1, 11]: >64 µg/mL | MIC Enterococcus faecalis (GC 6189) [1, 12]: >64 µg/mL | MIC Enterococcus faecium (GC 2243) ([1]; Enterococcus faecium (GC 2243)): 64 µg/mL (≈ 42.4 µM) | MIC Enterococcus faecium (GC 4556) ([1]; Enterococcus faecium (GC 4556)): >64 µg/mL | MIC Enterococcus faecium (GC 4557) ([1]; Enterococcus faecium (GC 4557)): 8 µg/mL (≈ 5.3 µM) | MIC Enterococcus avium (GC 4558) [1, 13]: 32 µg/mL (≈ 21.2 µM) | MIC Enterococcus faecalis (ATCC 29212) [1, 13]: >64 µg/mL | MIC Enterococcus faecalis (GC 2242) [1, 13]: >64 µg/mL | MIC Enterococcus faecalis (GC 2691) [1, 13]: >64 µg/mL | MIC Enterococcus faecalis (GC 3059) [1, 13]: >64 µg/mL | MIC Enterococcus faecalis (GC 4552) [1, 13]: >64 µg/mL | MIC Enterococcus faecalis (GC 4553) [1, 13]: 64 µg/mL (≈ 42.4 µM) | MIC Enterococcus faecalis (GC 4554) [1, 13]: >64 µg/mL | MIC Enterococcus faecalis (GC 6189) [1, 13]: >64 µg/mL | MIC Enterococcus faecium (GC 2243) [1, 13]: 64 µg/mL (≈ 42.4 µM) | MIC Enterococcus faecium (GC 4556) [1, 13]: >64 µg/mL | MIC Enterococcus faecium (GC 4557) [1, 13]: 8 µg/mL (≈ 5.3 µM) | MIC Escherichia coli (ATCC 25922) [2]: 64 µg/mL (≈ 42.4 µM) | MIC Escherichia coli (GC 4559) [2]: 64 µg/mL (≈ 42.4 µM) | MIC Escherichia coli (GC 4560) [2]: 8 µg/mL (≈ 5.3 µM) | MIC Staphylococcus aureus (ATCC 29213) [3]: >64 µg/mL | MIC Staphylococcus aureus (GC 1131) [3]: >64 µg/mL | MIC Staphylococcus aureus (GC 3051) [3]: >64 µg/mL | MIC Staphylococcus aureus (GC 3053) [3]: >64 µg/mL | MIC Staphylococcus aureus (GC 4541) [3]: 64 µg/mL (≈ 42.4 µM) | MIC Staphylococcus aureus (GC 4542) [3]: >64 µg/mL | MIC Staphylococcus aureus-SMITH (GC 4543) [3]: >64 µg/mL | MIC Staphylococcus aureus (GC 4544) [3]: >64 µg/mL | MIC Staphylococcus aureus (GC 4545) [3]: 64 µg/mL (≈ 42.4 µM) | MIC Staphylococcus haemolyticus (GC 4546) [3]: 32 µg/mL (≈ 21.2 µM) | MIC Coagulase Negative Staphylococcus (GC 4547) [3]: 32 µg/mL (≈ 21.2 µM) | MIC Coagulase Negative Staphylococcus (GC 4548) [3]: 64 µg/mL (≈ 42.4 µM) | MIC Coagulase Negative Staphylococcus (GC 4549) [3]: 64 µg/mL (≈ 42.4 µM) | MIC Coagulase Negative Staphylococcus (GC 4551) [3]: >64 µg/mL | MIC Coagulase Negative Staphylococcus (GC 6257) [3]: 64 µg/mL (≈ 42.4 µM) | MIC Streptococcus agalactiae (GC 4564) [4, 14]: >64 µg/mL | MIC Streptococcus pneumoniae (ATCC 6301) [4, 15]: 64 µg/mL (≈ 42.4 µM) | MIC Streptococcus pneumoniae (GC 1894) [4, 16]: 64 µg/mL (≈ 42.4 µM) | MIC Streptococcus pneumoniae (GC 4565) [4, 17]: 64 µg/mL (≈ 42.4 µM) | MIC Streptococcus pyogenes (GC 4563) [4, 18]: 32 µg/mL (≈ 21.2 µM) | MIC Streptococcus agalactiae (GC 4564) [4, 13]: >64 µg/mL | MIC Streptococcus pneumoniae (ATCC 6301) [4, 13]: 64 µg/mL (≈ 42.4 µM) | MIC Streptococcus pneumoniae (GC 1894) [4, 13]: 64 µg/mL (≈ 42.4 µM) | MIC Streptococcus pneumoniae (GC 4565) [4, 13]: 64 µg/mL (≈ 42.4 µM) | MIC Streptococcus pyogenes (GC 4563) [4, 13]: 32 µg/mL (≈ 21.2 µM)

Cc1ccc(Oc2cccc(C3OCC4OC(OC5C(CO)OC(Oc6ccc(CC7NC(=O)C(C(C)c8ccccc8)NC(=O)CNC(=O)C(CO)NC(=O)C(C(O)C8CNC(=N)N8C8OC(CO)C(O)C(O)C8O)NC(=O)C(C(O)C8CNC(=N)N8)NC7=O)cc6I)C(O)C5O)C(O)C(O)C4O3)c2)cc1 (centres unmarked) [Example 197]
MIC Enterococcus avium (GC 4558) ([1]; Enterococcus avium (GC 4558)): 16 µg/mL (≈ 9.9 µM) | MIC Enterococcus faecalis (ATCC 29212) [1, 5]: >64 µg/mL | MIC Enterococcus faecalis (GC 2242) [1, 6]: >64 µg/mL | MIC Enterococcus faecalis (GC 2691) [1, 7]: >64 µg/mL | MIC Enterococcus faecalis (GC 3059) [1, 8]: >64 µg/mL | MIC Enterococcus faecalis (GC 4552) [1, 9]: >64 µg/mL | MIC Enterococcus faecalis (GC 4553) [1, 10]: 64 µg/mL (≈ 39.6 µM) | MIC Enterococcus faecalis (GC 4554) [1, 11]: >64 µg/mL | MIC Enterococcus faecalis (GC 6189) [1, 12]: 64 µg/mL (≈ 39.6 µM) | MIC Enterococcus faecium (GC 2243) ([1]; Enterococcus faecium (GC 2243)): 64 µg/mL (≈ 39.6 µM) | MIC Enterococcus faecium (GC 4556) ([1]; Enterococcus faecium (GC 4556)): >64 µg/mL | MIC Enterococcus faecium (GC 4557) ([1]; Enterococcus faecium (GC 4557)): 8 µg/mL (≈ 4.95 µM) | MIC Enterococcus avium (GC 4558) [1, 13]: 16 µg/mL (≈ 9.9 µM) | MIC Enterococcus faecalis (ATCC 29212) [1, 13]: >64 µg/mL | MIC Enterococcus faecalis (GC 2242) [1, 13]: >64 µg/mL | MIC Enterococcus faecalis (GC 2691) [1, 13]: >64 µg/mL | MIC Enterococcus faecalis (GC 3059) [1, 13]: >64 µg/mL | MIC Enterococcus faecalis (GC 4552) [1, 13]: >64 µg/mL | MIC Enterococcus faecalis (GC 4553) [1, 13]: 64 µg/mL (≈ 39.6 µM) | MIC Enterococcus faecalis (GC 4554) [1, 13]: >64 µg/mL | MIC Enterococcus faecalis (GC 6189) [1, 13]: 64 µg/mL (≈ 39.6 µM) | MIC Enterococcus faecium (GC 2243) [1, 13]: 64 µg/mL (≈ 39.6 µM) | MIC Enterococcus faecium (GC 4556) [1, 13]: >64 µg/mL | MIC Enterococcus faecium (GC 4557) [1, 13]: 8 µg/mL (≈ 4.95 µM) | MIC Escherichia coli (ATCC 25922) [2]: 32 µg/mL (≈ 19.8 µM) | MIC Escherichia coli (GC 4559) [2]: 64 µg/mL (≈ 39.6 µM) | MIC Escherichia coli (GC 4560) [2]: 16 µg/mL (≈ 9.9 µM) | MIC Staphylococcus aureus (ATCC 29213) [3]: 32 µg/mL (≈ 19.8 µM) | MIC Staphylococcus aureus (GC 1131) [3]: 16 µg/mL (≈ 9.9 µM) | MIC Staphylococcus aureus (GC 3051) [3]: 64 µg/mL (≈ 39.6 µM) | MIC Staphylococcus aureus (GC 3053) [3]: 64 µg/mL (≈ 39.6 µM) | MIC Staphylococcus aureus (GC 4541) [3]: 16 µg/mL (≈ 9.9 µM) | MIC Staphylococcus aureus (GC 4542) [3]: 64 µg/mL (≈ 39.6 µM) | MIC Staphylococcus aureus-SMITH (GC 4543) [3]: 16 µg/mL (≈ 9.9 µM) | MIC Staphylococcus aureus (GC 4544) [3]: 32 µg/mL (≈ 19.8 µM) | MIC Staphylococcus aureus (GC 4545) [3]: 32 µg/mL (≈ 19.8 µM) | MIC Staphylococcus haemolyticus (GC 4546) [3]: 32 µg/mL (≈ 19.8 µM) | MIC Coagulase Negative Staphylococcus (GC 4547) [3]: 32 µg/mL (≈ 19.8 µM) | MIC Coagulase Negative Staphylococcus (GC 4548) [3]: 8 µg/mL (≈ 4.95 µM) | MIC Coagulase Negative Staphylococcus (GC 4549) [3]: 8 µg/mL (≈ 4.95 µM) | MIC Coagulase Negative Staphylococcus (GC 4551) [3]: 16 µg/mL (≈ 9.9 µM) | MIC Coagulase Negative Staphylococcus (GC 6257) [3]: 4 µg/mL (≈ 2.48 µM) | MIC Streptococcus agalactiae (GC 4564) [4, 14]: 16 µg/mL (≈ 9.9 µM) | MIC Streptococcus pneumoniae (ATCC 6301) [4, 15]: 4 µg/mL (≈ 2.48 µM) | MIC Streptococcus pneumoniae (GC 1894) [4, 16]: 8 µg/mL (≈ 4.95 µM) | MIC Streptococcus pneumoniae (GC 4565) [4, 17]: 8 µg/mL (≈ 4.95 µM) | MIC Streptococcus pyogenes (GC 4563) [4, 18]: 16 µg/mL (≈ 9.9 µM) | MIC Streptococcus agalactiae (GC 4564) [4, 13]: 16 µg/mL (≈ 9.9 µM) | MIC Streptococcus pneumoniae (ATCC 6301) [4, 13]: 4 µg/mL (≈ 2.48 µM) | MIC Streptococcus pneumoniae (GC 1894) [4, 13]: 8 µg/mL (≈ 4.95 µM) | MIC Streptococcus pneumoniae (GC 4565) [4, 13]: 8 µg/mL (≈ 4.95 µM) | MIC Streptococcus pyogenes (GC 4563) [4, 13]: 16 µg/mL (≈ 9.9 µM)
